# In US10927123B2, “Modulators of the beta-3 adrenergic receptor useful for the treatment or prevention of disorders related thereto” (Arena Pharmaceuticals, Inc., priority 2016, dated 2021):
# Target: Beta-3 Adrenergic Receptor (Homo sapiens (Human), UniProt P13945)
# Test: HTRF cAMP antagonist assay (IC50 determination)
# Format: cell-based
# Details: CHO-K1 cells stably expressing recombinant receptor; antagonism of isoproterenol at EC90; cAMP readout
# Summary of the method: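 CHO-K1 cells stably expressing receptor, 1500 cells/well, preincubated briefly with 10-point 5-fold compound series (top final typically 10 or 100 μM) in PBS with 1 mM IBMX, then challenged with isoproterenol at EC90 for 1 h at room temperature. cAMP read by HTRF against on-plate standard curve; IC50 from dose-response.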
# Sequence of Beta-3 Adrenergic Receptor (P13945 whole entry, species assumed): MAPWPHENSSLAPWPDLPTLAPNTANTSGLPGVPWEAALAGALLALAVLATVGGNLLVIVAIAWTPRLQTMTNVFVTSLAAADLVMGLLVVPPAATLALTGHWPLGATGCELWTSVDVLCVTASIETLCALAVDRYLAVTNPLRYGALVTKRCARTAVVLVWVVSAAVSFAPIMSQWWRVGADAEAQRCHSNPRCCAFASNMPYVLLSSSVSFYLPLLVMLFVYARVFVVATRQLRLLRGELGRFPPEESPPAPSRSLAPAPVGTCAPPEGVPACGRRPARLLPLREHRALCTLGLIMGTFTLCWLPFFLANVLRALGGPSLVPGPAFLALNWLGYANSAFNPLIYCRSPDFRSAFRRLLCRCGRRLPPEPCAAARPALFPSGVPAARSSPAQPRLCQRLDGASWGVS
row,IC50 [nM],SMILES
1,106,"O=S(=O)(c1cnc2c(c1)CCCO2)N1CCC2(CC1)C[C@@H](NC[C@H](O)COc1cccc(S(=O)(=O)C3(CO)CC3)c1)CO2 [Compound 284, (S)-1-((R)-8-(3,4-dihydro-2H-pyrano[2,3-b]pyridin-6-ylsulfonyl)-1-oxa-8-azaspiro[4.5]decan-3-ylamino)-3-(3-(1-(hydroxymethyl)cyclopropylsulfonyl)phenoxy)propan-2-ol]"
2,303,"O=S(=O)(c1cnc2c(c1)OCCO2)N1CCC2(CC1)C[C@@H](NC[C@H](O)COc1cccc(S(=O)(=O)C3(CO)CC3)c1)CO2 [Compound 285, (S)-1-((R)-8-(2,3-dihydro-[1,4]dioxino[2,3-b]pyridin-7-ylsulfonyl)-1-oxa-8-azaspiro[4.5]decan-3-ylamino)-3-(3-(1-(hydroxymethyl)cyclopropylsulfonyl)phenoxy)propan-2-ol]"
3,56.9,"CN1CCOc2cc(S(=O)(=O)N3CCC4(CC3)C[C@@H](NC[C@H](O)COc3cccc(S(=O)(=O)C5(CO)CC5)c3)CO4)cnc21 [Compound 286, (S)-1-(3-(1-(hydroxymethyl)cyclopropylsulfonyl)phenoxy)-3-((R)-8-(4-methyl-3,4-dihydro-2H-pyrido[3,2-b][1,4]oxazin-7-ylsulfonyl)-1-oxa-8-azaspiro[4.5]decan-3-ylamino)propan-2-ol]"
4,177,"CN1CC(C)(C)Oc2nc(S(=O)(=O)N3CCC4(CC3)C[C@@H](NC[C@H](O)COc3cccc(S(=O)(=O)C5(CO)CC5)c3)CO4)ccc21 [Compound 288, (S)-1-(3-(1-(hydroxymethyl)cyclopropylsulfonyl)phenoxy)-3-((R)-8-(1,3,3-trimethyl-2,3-dihydro-1H-pyrido[2,3-b][1,4]oxazin-6-ylsulfonyl)-1-oxa-8-azaspiro[4.5]decan-3-ylamino)propan-2-ol]"
5,69.8,"O=S(=O)(c1cccc(OC[C@@H](O)CN[C@H]2COC3(CCN(S(=O)(=O)c4cnc5c(c4)CCCO5)CC3)C2)c1)C1CC1 [Compound 291, (5)-1-(3-(cyclopropylsulfonyl)phenoxy)-3-((R)-8-(3,4-dihydro-2H-pyrano[2,3-b]pyridin-6-ylsulfonyl)-1-oxa-8-azaspiro[4.5]decan-3-ylamino)propan-2-ol]"
6,90.2,"CCn1cc(S(=O)(=O)N2CCC3(CC2)C[C@@H](NC[C@H](O)COc2cccc(S(=O)(=O)C4(CO)CC4)c2)CO3)c(=O)c2ccccc21 [Compound 292, 1-ethyl-3-((R)-3-((S)-2-hydroxy-3-(3-(1-(hydroxymethyl)cyclopropylsulfonyl)phenoxy)propylamino)-1-oxa-8-azaspiro[4.5]decan-8-ylsulfonyl)quinolin-4(1H)-one]"
7,110,"CCn1cc(S(=O)(=O)N2CCC3(CC2)C[C@@H](NC[C@H](O)COc2cccc(S(=O)(=O)C(C)(C)CO)c2)CO3)c(=O)c2ccccc21 [Compound 294, 1-ethyl-3-((R)-3-((S)-2-hydroxy-3-(3-(1-hydroxy-2-methylpropan-2-ylsulfonyl)phenoxy)propylamino)-1-oxa-8-azaspiro[4.5]decan-8-ylsulfonyl)quinolin-4(1H)-one]"
8,107,"CCn1cc(S(=O)(=O)N2CCC3(CC2)C[C@H](NC[C@@H](O)COc2cccc(S(C)(=O)=O)c2)CO3)c(=O)c2ccccc21 [Compound 296, 1-ethyl-3-((S)-3-((R)-2-hydroxy-3-(3-(methylsulfonyl)phenoxy)propylamino)-1-oxa-8-azaspiro[4.5]decan-8-ylsulfonyl)quinolin-4(1H)-one]"
9,82.5,"CCn1cc(S(=O)(=O)N2CCC3(CC2)C[C@@H](NC[C@H](O)COc2cccc(S(=O)(=O)C(F)(F)CO)c2)CO3)c(=O)c2ccccc21 [Compound 298, 3-((R)-3-((S)-3-(3-(1,1-difluoro-2-hydroxyethylsulfonyl)phenoxy)-2-hydroxypropylamino)-1-oxa-8-azaspiro[4.5]decan-8-ylsulfonyl)-1-ethylquinolin-4(1H)-one]"
10,357,"CCOc1c(S(=O)(=O)N2CCC3(CC2)C[C@@H](NC[C@H](O)COc2cccc(S(=O)(=O)C4(CO)CC4)c2)CO3)ccc2ccccc12 [Compound 301, (S)-1-((R)-8-(1-ethoxynaphthalen-2-ylsulfonyl)-1-oxa-8-azaspiro[4.5]decan-3-ylamino)-3-(3-(1-(hydroxymethyl)cyclopropylsulfonyl)phenoxy)propan-2-ol]"
11,17.1,"O=S(=O)(c1cccc(OC[C@@H](O)CN[C@H]2COC3(CCN(S(=O)(=O)c4cnc5c(c4)NCCO5)CC3)C2)c1)C1CC1 [Compound 303, (S)-1-(3-(cyclopropylsulfonyl)phenoxy)-3-((R)-8-(2,3-dihydro-1H-pyrido[2,3-b][1,4]oxazin-7-ylsulfonyl)-1-oxa-8-azaspiro[4.5]decan-3-ylamino)propan-2-ol]"
12,69,"COCCN1CCOc2ncc(S(=O)(=O)N3CCC4(CC3)C[C@@H](NC[C@H](O)COc3cccc(S(=O)(=O)C5CC5)c3)CO4)cc21 [Compound 304, (S)-1-(3-(cyclopropylsulfonyl)phenoxy)-3-((R)-8-(1-(2-methoxyethyl)-2,3-dihydro-1H-pyrido[2,3-b][1,4]oxazin-7-ylsulfonyl)-1-oxa-8-azaspiro[4.5]decan-3-ylamino)propan-2-ol]"
13,17.1,"C[C@@H]1CN(C)c2cc(S(=O)(=O)N3CCC4(CC3)C[C@@H](NC[C@H](O)COc3cccc(S(=O)(=O)C5CC5)c3)CO4)cnc2O1 [Compound 305, (S)-1-(3-(cyclopropylsulfonyl)phenoxy)-3-((R)-8-((R)-1,3-dimethyl-2,3-dihydro-1H-pyrido[2,3-b][1,4]oxazin-7-ylsulfonyl)-1-oxa-8-azaspiro[4.5]decan-3-ylamino)propan-2-ol]"
14,62.9,"CCn1cc(S(=O)(=O)N2CCC3(CC2)C[C@@H](NC[C@H](O)COc2cccc(S(=O)(=O)COC)c2)CO3)c(=O)c2ccccc21 [Compound 306, 1-ethyl-3-((R)-3-((S)-2-hydroxy-3-(3-(methoxymethylsulfonyl)phenoxy)propylamino)-1-oxa-8-azaspiro[4.5]decan-8-ylsulfonyl)quinolin-4(1H)-one]"

# The remaining lines, values behind:
row,SMILES,IC50 [nM]
1,"Cn1cnc2ccc(S(=O)(=O)N3CCC4(CC3)C[C@@H](NC[C@H](O)COc3cccc(S(=O)(=O)C5(CO)CC5)c3)CO4)nc21 [Compound 287, (S)-1-(3-(1-(hydroxymethyl)cyclopropylsulfonyl)phenoxy)-3-((R)-8-(3-methyl-3H-imidazo[4,5-b]pyridin-5-ylsulfonyl)-1-oxa-8-azaspiro[4.5]decan-3-ylamino)propan-2-ol]",151
2,"O=S(=O)(c1cccc(OC[C@@H](O)CN[C@H]2COC3(CCN(S(=O)(=O)c4cnc5c(c4)OCCO5)CC3)C2)c1)C1CC1 [Compound 289, (S)-1-(3-(cyclopropylsulfonyl)phenoxy)-3-((R)-8-(2,3-dihydro-[1,4]dioxino[2,3-b]pyridin-7-ylsulfonyl)-1-oxa-8-azaspiro[4.5]decan-3-ylamino)propan-2-ol]",65.8
3,"CN1CCOc2cc(S(=O)(=O)N3CCC4(CC3)C[C@@H](NC[C@H](O)COc3cccc(S(=O)(=O)C5CC5)c3)CO4)cnc21 [Compound 290, (S)-1-(3-(cyclopropylsulfonyl)phenoxy)-3-((R)-8-(4-methyl-3,4-dihydro-2H-pyrido[3,2-b][1,4]oxazin-7-ylsulfonyl)-1-oxa-8-azaspiro[4.5]decan-3-ylamino)propan-2-ol]",34.2
4,"CCn1cc(S(=O)(=O)N2CCC3(CC2)C[C@H](NC[C@H](O)COc2cccc(S(=O)(=O)C4(CO)CC4)c2)CO3)c(=O)c2ccccc21 [Compound 293, 1-ethyl-3-((S)-3-((S)-2-hydroxy-3-(3-(1-(hydroxymethyl)cyclopropylsulfonyl)phenoxy)propylamino)-1-oxa-8-azaspiro[4.5]decan-8-ylsulfonyl)quinolin-4(1H)-one]",130
5,"Cn1cc(S(=O)(=O)N2CCC3(CC2)C[C@@H](NC[C@H](O)COc2cccc(S(=O)(=O)C4(CO)CC4)c2)CO3)c(=O)c2ccccc21 [Compound 295, 3-((R)-3-((S)-2-hydroxy-3-(3-(1-(hydroxymethyl)cyclopropylsulfonyl)phenoxy)propylamino)-1-oxa-8-azaspiro[4.5]decan-8-ylsulfonyl)-1-methylquinolin-4(1H)-one]",143
6,"CCn1cc(S(=O)(=O)N2CCC3(CC2)C[C@@H](NC[C@H](O)COc2cccc(S(=O)(=O)C4CC4)c2)CO3)c(=O)c2ccccc21 [Compound 297, 3-((R)-3-((S)-3-(3-(cyclopropylsulfonyl)phenoxy)-2-hydroxypropylamino)-1-oxa-8-azaspiro[4.5]decan-8-ylsulfonyl)-1-ethylquinolin-4(1H)-one]",26.5
7,"CCn1cc(S(=O)(=O)N2CCC3(CC2)C[C@@H](NC[C@H](O)COc2cccc(S(=O)(=O)C(C)F)c2)CO3)c(=O)c2ccccc21 (stereo partly drawn) [Compound 299, 1-ethyl-3-((3R)-3-((2S)-3-(3-(1-fluoroethylsulfonyl)phenoxy)-2-hydroxypropylamino)-1-oxa-8-azaspiro[4.5]decan-8-ylsulfonyl)quinolin-4(1H)-one]",44.3
8,"O=S(=O)(c1ccc2ccccc2c1)N1CCC2(CC1)C[C@@H](NC[C@H](O)COc1cccc(S(=O)(=O)C3(CO)CC3)c1)CO2 [Compound 300, (S)-1-(3-(1-(hydroxymethyl)cyclopropylsulfonyl)phenoxy)-3-((R)-8-(naphthalen-2-ylsulfonyl)-1-oxa-8-azaspiro[4.5]decan-3-ylamino)propan-2-ol]",20.4
9,"O=S(=O)(c1cnc2cccn2c1)N1CCC2(CC1)C[C@@H](NC[C@H](O)COc1cccc(S(=O)(=O)C3(CO)CC3)c1)CO2 [Compound 302, (S)-1-(3-(1-(hydroxymethyl)cyclopropylsulfonyl)phenoxy)-3-((R)-8-(pyrrolo[1,2-a]pyrimidin-3-ylsulfonyl)-1-oxa-8-azaspiro[4.5]decan-3-ylamino)propan-2-ol]",696
10,"O=S(=O)(c1cccc(OC[C@@H](O)CN[C@H]2COC3(CCN(S(=O)(=O)c4c[nH]c5ncccc45)CC3)C2)c1)C1CC1 [Compound 307, (S)-1-((R)-8-(1H-pyrrolo[2,3-b]pyridin-3-ylsulfonyl)-1-oxa-8-azaspiro[4.5]decan-3-ylamino)-3-(3-(cyclopropylsulfonyl)phenoxy)propan-2-ol]",59.2
